# From patent publication US20160311788A1, “Antifouling Compounds And Use Thereof” (National University of Singapore, priority 2008, published 2016)
# Where two headings read alike, the source gives them in different places.
# Experiments:
# [1] = system: marine bacteria strain S1; experiment: disc inhibition assay, strain S1; type: cell-based, Rhodovulum iodosum; conditions: strain 1, 50 μg of compound per disc
# Protocol: (§1) The disc inhibition assay was used. This assay is a conventional method routinely used for screening antibacterial compounds to determine degree of susceptibility to antibacterial compounds. The diameter of the zone of inhibition is proportional to the degree of susceptibility of the bacterial strain. The compounds were tested against 13 strains of marine bacteria isolated from Singapore coastal waters.
# (§2) 13 strains of marine bacteria were isolated from fouling communities located in the coastal waters around Singapore. These were characterized in earlier studies and reported in Teo et al. (U.S. patent application Ser. No. 11/265,833) and Choong et al (in prep). In addition, four reference bacterial strains were added tested: Escherichia coli (Strain K12, ATCC 15222), E. coli (strain DH5a), Pseudomonas aeruginosa (strain LMG 12228; ATCC 15692) and P. putida (strain KT2440; ATCC 47054). All the bacteria were also tested against five antibiotics: ampicillin (AMP), tetracycline (TETR), erythromycin (ERY), chloramphenicol (CHL) and streptomycin (STREP).
# (§3) Disks comprising the compounds to be tested were prepared as follows. The antibacterial assay, the pure compounds were made up to a concentration of 2 mgml^−1 in DMSO. 25 μl of the stock was pipetted onto each 6 mm sterile disc (Macherey-Nagel #484000) to obtain 50 μg of compound per disc. Equivalent volume of DMSO was used inoculated for the control.
# (§4) For all disk inhibition assays, bacterial cultures were grown in marine broth (Pronadisa #1217.00). Sterile swabs dipped into the cultures were used to inoculate Marine Agar plates with a bacterial lawn by smearing the culture over the surface. After inoculating the plates, discs with antibiotics, pharmaceuticals or control blanks were placed on each plate. Each concentration of antibiotic or pharmaceutical was tested with two replicates. After the disks were placed on the agar surface, plates were incubated overnight in the dark at 35° C. After incubation, plates were examined for zones of inhibition or clearing around control and treated disks. The diameter of any zone of clearing or inhibition was measured using Vernier calipers. There were two replicates per treatment, and the average was taken.
# [2] = system: marine bacteria strain S3; experiment: disc inhibition assay, strain S3; type: cell-based, Erythrobacter aquimaris; conditions: for zone of inhibition at 50 µg/disc: Qipengyuania aquimaris, S3, 24 h
# Protocol: as §1, §2, §3, §4
# [3] = system: marine bacteria strain S4; experiment: disc inhibition assay, strain S4; type: cell-based, Bacillus algicola; conditions: for zone of inhibition: strain 4, 50 μg of compound per disc; for zone of inhibition at 50 µg/disc: Guptibacillus algicola, S4, 24 h
# Protocol: as §1, §2, §3, §4
# [4] = system: marine bacteria strain S9; experiment: disc inhibition assay, strain S9; type: cell-based, Bacillus algicola; conditions: for zone of inhibition: strain 9, 50 μg of compound per disc; for zone of inhibition at 50 µg/disc: Guptibacillus algicola, S9, 24 h
# Protocol: as §1, §2, §3, §4
# [5] = system: marine bacteria strain S10; experiment: disc inhibition assay, strain S10; type: cell-based, Halobacillus trueperi; conditions: for zone of inhibition at 50 µg/disc: Halobacillus trueperi, S10, 24 h
# Protocol: as §1, §2, §3, §4
# [6] = system: marine bacteria strain S14; experiment: disc inhibition assay, strain S14; type: cell-based, Vibrio probioticus; conditions: strain 14, 50 μg of compound per disc
# Protocol: as §1, §2
# (§5) Disks comprising the compounds to be tested were prepared as follows. The antibacterial assay, the pure compounds were made up to a concentration of 2 mgml^−1 in DMSO. […] Equivalent volume of DMSO was used inoculated for the control.
# as §4
# [7] = system: marine bacteria strain S16; experiment: disc inhibition assay, strain S16; type: cell-based, Pseudoalteromonas piscicida; conditions: for zone of inhibition at 50 µg/disc: Pseudoalteromonas piscicida, S16, 24 h
# Protocol: as §1, §2, §3, §4
# [8] = system: marine bacteria strain S17; experiment: disc inhibition assay, strain S17; type: cell-based, Gordonia terrae; conditions: for zone of inhibition: strain 17, 50 μg of compound per disc; for zone of inhibition at 50 µg/disc: Gordonia terrae, S17, 24 h
# Protocol: as §1, §2, §3, §4
# [9] = system: marine bacteria strain S18; experiment: disc inhibition assay, strain S18; type: cell-based, Microbacterium esteraromaticum; conditions: for zone of inhibition: strain 18, 50 μg of compound per disc; for zone of inhibition at 50 µg/disc: Microbacterium esteraromaticum, S18, 24 h
# Protocol: as §1, §2, §5, §4
# [10] = system: marine bacteria strain S27; experiment: disc inhibition assay, strain S27; type: cell-based, Tenacibaculum lutimaris; conditions: strain 27, 50 μg of compound per disc
# Protocol: as §1, §2, §3, §4
# [11] = system: marine bacteria strain S28; experiment: disc inhibition assay, strain S28; type: cell-based, Arthrobacter protophormial; conditions: for zone of inhibition: strain 28, 50 μg of compound per disc; for zone of inhibition at 50 µg/disc: Arthrobacter, S28, 24 h
# Protocol: as §1, §2, §3, §4
# [12] = system: marine bacteria strain S29; experiment: disc inhibition assay, strain S29; type: cell-based, Bacillus hwajinpoensis; conditions: for zone of inhibition: strain 29, 50 μg of compound per disc; for zone of inhibition at 50 µg/disc: Guptibacillus hwajinpoensis, S29, 24 h
# Protocol: as §1, §2, §3, §4
# [13] = system: marine bacteria strain S30; experiment: disc inhibition assay, strain S30; type: cell-based, Bacillus borophilicus; conditions: for zone of inhibition: strain 30, 50 μg of compound per disc; for zone of inhibition at 50 µg/disc: Bacillus, S30, 24 h
# Protocol: as §1, §2, §3, §4
# [14] = strain 3, 50 μg of compound per disc
# [15] = strain 16, 50 μg of compound per disc
# [16] = strain 10, 50 μg of compound per disc
Compound,zone of inhibition [1],"zone of inhibition [2, 14]",zone of inhibition [3],zone of inhibition [4],zone of inhibition [6],zone of inhibition [8],zone of inhibition [9],zone of inhibition [10],zone of inhibition [11],zone of inhibition [12],zone of inhibition [13],zone of inhibition at 50 µg/disc [2] [mm],zone of inhibition at 50 µg/disc [3] [mm],zone of inhibition at 50 µg/disc [4] [mm],zone of inhibition at 50 µg/disc [5] [mm],"zone of inhibition [7, 15]",zone of inhibition at 50 µg/disc [8] [mm],zone of inhibition at 50 µg/disc [9] [mm],zone of inhibition at 50 µg/disc [11] [mm],zone of inhibition at 50 µg/disc [12] [mm],further results
O=C(C(c1ccccc1)c1ccccc1)N1CCC(O)CC1 [Compound 9.3],−,−,−,−,−,−,−,−,−,−,−,,,,,,,,,,"zone of inhibition at 50 µg/disc ([5]; strain 10, 50 μg of compound per disc, read-out: zone of inhibition): 2 to 5 mm; zone of inhibition at 50 µg/disc ([7]; strain 16, 50 μg of compound per disc, read-out: zone of inhibition): 2 to 5 mm"
CC(=O)OC1(c2ccc(Cl)cc2)CCN(CCC(C(=O)N(C)C)(c2ccccc2)c2ccccc2)CC1 [Compound 5.3],−,,,,−,,,−,,,,5 to 10,2 to 5,2 to 5,5 to 10,−,2 to 5,2 to 5,2 to 5,2 to 5,zone of inhibition at 50 µg/disc [13]: 2 to 5 mm
CCCCC(CCCCC(O)CO)C(=O)N1CCCCC1 (stereo not drawn) [Compound 12.6],−,−,−,−,−,−,−,−,−,−,−,,,,,−,,,,,"zone of inhibition [5, 16]: −"
CN(C)C(=O)C(CC[N+]1(C)CCC(O)(c2ccc(Cl)cc2)CC1)(c1ccccc1)c1ccccc1 (stereo not drawn) [Compound 4.7],−,,,,−,,,−,,,,5 to 10,5 to 10,5 to 10,5 to 10,,2 to 5,2 to 5,5 to 10,5 to 10,zone of inhibition at 50 µg/disc [7]: 2 to 5 mm; zone of inhibition at 50 µg/disc [13]: 2 to 5 mm
O=C(C(c1ccccc1)c1ccccc1)N1CCC(O)(c2ccc(Cl)cc2)CC1 [Compound 4.3],−,,−,−,−,−,−,−,−,−,−,,,,,−,,,,,"zone of inhibition at 50 µg/disc ([2]; strain 3, 50 μg of compound per disc, read-out: zone of inhibition): 2 to 5 mm; zone of inhibition [5, 16]: −"
C/C=C/C=C/C(=O)N1CCCCC1 [Compound 11.4],,,,,,,,,,,,,,,,,,,,,antibacterial activity in words ([7]; strain S16): susceptible
